{"source": "paper PMC5201331", "about": "“Subchronic Toxicities of HZ1006, a Hydroxamate-Based Histone Deacetylase Inhibitor, in Beagle Dogs and Sprague-Dawley Rats” (International Journal of Environmental Research and Public …, 2016)", "origin": "cited, not measured here", "key": {"patients": {"test_system": "patients", "design": "method as in PMID 12440223", "conditions": "day-1 and -5 schedule every 21 days; cited from earlier work"}, "dogs": {"test_system": "dogs", "design": "method as in PMID 19903873", "conditions": "26 weeks orally dosed daily with 4-week recovery; cited from earlier work"}, "rats": {"test_system": "rats", "design": "method as in PMID 19903873", "conditions": "rats, 20, 50 or 150 mg/kg/day, 26 weeks orally dosed daily with 4-week recovery; cited from earlier work"}}}
{"smiles": "C/C=C1\\NC(=O)[C@H]2CSSCC/C=C/[C@H](CC(=O)N[C@H](C(C)C)C(=O)N2)OC(=O)[C@H](C(C)C)NC1=O", "note": "[depsipeptide]", "values": [{"measurement": "MTD", "setting": "patients", "result": 17.8, "unit": "mg/m^2"}]}
{"smiles": "O=C(CCCCCCC(=O)Nc1ccccc1)NO", "note": "[vorinostat, suberoylanilide hydroxamic acid]", "values": [{"measurement": "no-observed adverse effect level", "setting": "dogs", "result": 60, "unit": "mg/kg/day"}, {"measurement": "no-observed adverse effect level", "setting": "rats", "result": "not established"}]}
